Assay results: patent publication US20220073532A1, “INHIBITORS OF CGAS ACTIVITY AS THERAPEUTIC AGENTS” (BELLBROOK LABS, LLC, priority 2019, published 2022)
≈ marks a conversion by molar mass, not a printed value.

What was measured:
Ksol (PBS, pH 7.4) = assay type: physicochemical; settings: pH 7.4, aqueous buffer, kinetic from dmso stock
[1] = tested on: MDCK-MDR (Madin-Darby Canine Kidney cells-Multi Drug Resistance pump); assay: MDCK-MDR permeability; assay type: in vitro ADME
Procedure: (§1) ADME/PK: Compounds are tested in Caco-2 and MDR1-MDCK permeability assays to provide a measure of intestinal absorption, blood-brain-permeability and efflux by P-glycoprotein (P-gp), a frequent obstacle to effective CNS delivery. CNS drugs are associated with high passive membrane permeability (Papp>1×10^−6 cm/sec) and have low efflux ratios (Papp(B-A)/Papp(A-B)<2.5). Metabolic stability is tested using mouse and human liver microsomes incubated with NADPH for CYP-dependent metabolism and with UDPGA for glucuronidation. Compounds are tested for pharmacokinetics and brain penetration in mice using oral, intravenous and intraperitoneal administration.

MDR1 (P-glycoprotein) = assay: MDCK-MDR permeability; assay type: in vitro ADME, canine; settings: dog, MDCK-MDR1
Procedure: as §1

cGAS = cGAS (Homo sapiens, UniProt Q8N884); assay: SPR / biophysical binding to cGAS; settings: enzymatic analysis and SPR, TSA
cGAS, sequence (Q8N884 whole entry): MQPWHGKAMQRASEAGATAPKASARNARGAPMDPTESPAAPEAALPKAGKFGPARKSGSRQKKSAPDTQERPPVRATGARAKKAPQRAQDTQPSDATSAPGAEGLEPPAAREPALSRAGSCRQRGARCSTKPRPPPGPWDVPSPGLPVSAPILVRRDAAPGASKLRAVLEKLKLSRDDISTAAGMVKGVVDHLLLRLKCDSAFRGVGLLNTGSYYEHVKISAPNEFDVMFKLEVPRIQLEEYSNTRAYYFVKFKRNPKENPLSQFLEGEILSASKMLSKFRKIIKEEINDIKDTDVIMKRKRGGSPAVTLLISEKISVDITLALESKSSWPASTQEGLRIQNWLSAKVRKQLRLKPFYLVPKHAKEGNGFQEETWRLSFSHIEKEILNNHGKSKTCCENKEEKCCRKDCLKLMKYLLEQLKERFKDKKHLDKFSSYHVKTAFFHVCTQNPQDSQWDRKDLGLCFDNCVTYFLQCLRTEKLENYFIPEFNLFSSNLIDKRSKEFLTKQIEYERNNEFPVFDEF
Excerpt: Following confirmation of hits at three concentrations and removal of compounds with visually evident reactivity or metabolic liabilities, non-stoichiometric inhibitors, aggregators, DNA intercalators and redox-active compounds were triaged (FIG. 2E) using established assays. […] Initial SAR based on more than 100 commercially available analogs provided additional confidence that the compounds were bonafide inhibitors, and informed potential scaffold hops and toleration for modifications.
A highly efficient platform for preclinical drug discovery (FIG. 3) was assembled, providing for development of cGAS inhibitors, which is improved by the addition of a powerful computational modeling method and in vivo PK studies (FIG. 3). […]
Biochemical and biophysical analysis: Potency and MOA studies, including Mn^2+ sensitivity, are performed using the cGAS enzymatic assay. […] Competition with ATP and GTP is assessed by comparing basal IC50 values to those in the presence of saturating ATP or GTP, and subsequently confirmed by measuring velocity vs. substrate at varying ATP or GTP levels. […]

[2] = Mouse microsomal stability (NADPH); assay type: in vitro ADME; settings: liver microsomes, read-out: Mouse MS Stability (NADPH) t1/2
Procedure: as §1

[3] = tested on: NFκB-driven SEAP expression in THP-1 Dual cells; assay: THP-1 Dual NFκB-SEAP reporter assay; assay type: cell-based, human; settings: THP-1 Dual cells
Procedure: (§2) IFN induction in human monocyte cell lines: The human monocyte cell line THP-1 gives a robust cGAS/STING-dependent type I IFN response and has been used extensively for studies on the pathway. Typically, cells are stimulated by transfection with dsDNA and gene expression is assessed using an ELISA for IFNβ, a reporter gene assay, and/or cGAS/STING pathway markers such as STING phosphorylation. These assays were validated using the TBK1 inhibitor, BX-795, which acts downstream of cGAS/STING, as a probe; THP-1 Dual cells (Invivogen, San Diego) are used as the reporter cell line for routine compound testing (FIG. 5A). These assays were optimized, including equalizing responses with transfected DNA and cGAMP and comparing responses between undifferentiated cells and cells that have been differentiated to macrophages (which show little difference). […] Stimulation of THP-1 Dual cells with damage-associated molecular pattern molecules (DAMPs) that act through pattern recognition receptors other than cGAS provides another way to confirm the specificity of putative cGAS inhibitors.

THP1 cGAS KO cells = assay: Specificity test in THP-Dual cGAS knockout cells; assay type: cell-based, human
Excerpt: FIG. 5 includes (A) a schematic showing the THP1 dual-cell reporter system: secreted luciferase reports on IRF3-driven transcription; secreted alkaline phosphatase reports on NFκB-driven transcription, both downstream of cGAS/STING. THP-Dual cGAS knockout cells are used to test for non-specific effects; (B) a plot of the dose response for inhibition of Luc expression by Compound 15; (C) a plot of the dose response for inhibition of Luc expression by the TBK1 inhibitor, BX-795; and (D) a plot of the dose response for inhibition of SEAP expression by Compound 15.
as §2

solubility kinetic (Ksol (PBS, pH 7.4)): 520 µM (≈ 155 µg/mL)
MDR-1-mediated export [1]: no indication of MDR-1-mediated export
efflux ratio (MDR1 (P-glycoprotein)): 0.4
Papp A→B (MDR1 (P-glycoprotein); A→B): 9.8 ×10⁻⁶ cm/s
binding stoichiometry to cGAS (cGAS): Stoichiometric binding (1:1)
half-life [2]: > 120 min
Compound: Cc1nc(N2CCC[C@H]2C(=O)O)c2oc3ccccc3c2n1 [Compound 15, (2-methylbenzofuro[3,2-d]pyrimidin-4-yl)-L-proline]
inhibition of NFκB (SEAP)-driven transcription [3]: 50-75%
effect on IRF3-driven Luc expression in THP1 cGAS KO cells stimulated with LPS (THP1 cGAS KO cells; LPS-stimulated, cGAS KO): no effect
inhibition in cGAMP-stimulated cells lacking cGAS (THP1 cGAS KO cells; cGAMP-stimulated, cGAS knockout): essentially no inhibition
